According to patent publication US9776997B2, “3-aryl-substituted imidazo[1,2-A]pyridines and their use” (Bayer Pharma Aktiengesellschaft, priority 2013, dated 2017):
Values joined by “and” are separate entries in the source; they are usually repeats but may differ in a detail not shown here. Equal entries are not always repeated. Structures can show the parent of a compound that is named as a salt.

Molecular target: T1, recombinant guanylate cyclase reporter cell line (Rattus norvegicus, UniProt P19686+P20595)
T1 construct: expressed in transfected cells; host or cells: recombinant reporter cell line
T1 sequence (P19686 1-690): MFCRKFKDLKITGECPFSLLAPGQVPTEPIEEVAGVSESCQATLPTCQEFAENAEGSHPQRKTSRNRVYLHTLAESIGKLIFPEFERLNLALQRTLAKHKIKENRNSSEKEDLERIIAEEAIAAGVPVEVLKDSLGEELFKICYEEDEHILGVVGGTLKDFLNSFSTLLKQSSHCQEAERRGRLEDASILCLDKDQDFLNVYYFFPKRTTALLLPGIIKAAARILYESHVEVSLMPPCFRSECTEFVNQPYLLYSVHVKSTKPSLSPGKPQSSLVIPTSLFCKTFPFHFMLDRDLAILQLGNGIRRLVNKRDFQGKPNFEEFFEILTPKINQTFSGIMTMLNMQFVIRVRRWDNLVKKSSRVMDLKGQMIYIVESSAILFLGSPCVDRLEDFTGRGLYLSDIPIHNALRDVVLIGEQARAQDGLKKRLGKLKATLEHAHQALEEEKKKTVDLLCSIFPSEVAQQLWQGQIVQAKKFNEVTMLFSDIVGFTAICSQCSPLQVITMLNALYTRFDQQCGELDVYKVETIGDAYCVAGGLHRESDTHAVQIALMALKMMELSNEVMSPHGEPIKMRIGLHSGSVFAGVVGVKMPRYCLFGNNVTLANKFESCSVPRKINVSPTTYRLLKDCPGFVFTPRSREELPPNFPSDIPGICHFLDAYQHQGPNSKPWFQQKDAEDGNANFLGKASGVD
T1 sequence (P20595 1-619): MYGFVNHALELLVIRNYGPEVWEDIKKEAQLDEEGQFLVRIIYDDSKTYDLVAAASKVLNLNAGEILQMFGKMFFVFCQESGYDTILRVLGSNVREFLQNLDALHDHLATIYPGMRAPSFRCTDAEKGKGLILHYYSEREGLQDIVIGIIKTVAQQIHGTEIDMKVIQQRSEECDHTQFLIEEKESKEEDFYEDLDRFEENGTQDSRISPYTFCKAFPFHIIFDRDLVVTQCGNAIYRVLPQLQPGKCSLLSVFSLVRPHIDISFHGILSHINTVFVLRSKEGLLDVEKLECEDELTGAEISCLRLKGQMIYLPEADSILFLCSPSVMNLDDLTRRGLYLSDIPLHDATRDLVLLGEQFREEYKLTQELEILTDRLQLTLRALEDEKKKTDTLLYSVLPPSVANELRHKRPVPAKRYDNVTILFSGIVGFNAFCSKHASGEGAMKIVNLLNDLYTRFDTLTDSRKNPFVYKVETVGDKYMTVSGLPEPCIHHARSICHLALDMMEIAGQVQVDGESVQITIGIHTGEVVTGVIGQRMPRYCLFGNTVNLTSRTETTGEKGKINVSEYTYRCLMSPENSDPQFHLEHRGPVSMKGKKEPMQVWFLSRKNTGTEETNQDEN
Assay: Effect on a recombinant guanylate cyclase reporter cell line
Format: cell-based
Conditions: MEC = minimum effective concentration; in some cases mean values for individual determinations
Procedure: B-2. Effect on a Recombinant Guanylate Cyclase Reporter Cell Line
The cellular effect of the inventive compounds is determined using a recombinant guanylate cyclase reporter cell line, as described in F. Wunder et al., Anal. Biochem. 339, 104-112 (2005).
Representative MEC values (MEC=minimum effective concentration) for the inventive compounds are shown in the table below (in some cases as mean values for individual determinations): […]

Row | MEC | SMILES
1 | 1.0 µM | Cc1nn(C)cc1-c1c(C)nc2c(OCc3c(F)cccc3F)cccn12 [Example 55]
2 | 1.0 µM | Cc1nc2c(OCc3c(F)cccc3F)cccn2c1-c1ccc(CN(C)C)cc1 [Example 26, 1-(4-{8-[(2,6-difluorobenzyl)oxy]-2-methylimidazo[1,2-a]pyridin-3-yl}phenyl)-N,N-dimethylmethanamine]
3 | 0.1 µM | Cc1nc2c(OCc3c(F)cccc3F)cccn2c1-c1cnn(CCN2CCOCC2)c1 [Example 119]
4 | 3.0 µM | CCN(CC)Cc1ccc(-c2c(C)nc3c(OCc4c(F)cccc4F)cccn23)cc1F [Example 43, N-(4-{8-[(2,6-difluorobenzyl)oxy]-2-methylimidazo[1,2-a]pyridin-3-yl}-2-fluorobenzyl)-N-ethylethanamine]
5 | 3.0 µM | Cc1nc2c(OCc3c(F)cccc3F)cccn2c1-c1cccc(Cl)c1 [Example 34, 3-(3-chlorophenyl)-8-[(2,6-difluorobenzyl)oxy]-2-methylimidazo[1,2-a]pyridine]
6 | 0.1 µM | Cc1nc2c(OCc3c(F)cccc3F)cccn2c1-c1cccc(O)c1 [Example 8, 3-{8-[(2,6-difluorobenzyl)oxy]-2-methylimidazo[1,2-a]pyridin-3-yl}phenol]
7 | 3.0 µM | Cc1nc2c(OCc3c(F)cccc3F)cccn2c1-c1csc2ccccc12 [Example 35, 3-(1-benzothiophen-3-yl)-8-[(2,6-difluorobenzyl)oxy]-2-methylimidazo[1,2-a]pyridine]
8 | 1.0 µM | Cc1nc2c(OCc3c(F)cccc3F)cccn2c1-c1ccc(C#N)cc1 [Example 17, 4-{8-[(2,6-difluorobenzyl)oxy]-2-methylimidazo[1,2-a]pyridin-3-yl}benzonitrile]
9 | 0.1 µM | Cc1cc(-c2c(C)nc3c(OCc4c(F)cccc4F)cccn23)ccn1 [Example 3, 8-[(2,6-difluorobenzyl)oxy]-2-methyl-3-(2-methylpyridin-4-yl)imidazo[1,2-a]pyridine]
10 | 3.0 µM | CCCCc1coc(-c2c(C)nc3c(OCc4c(F)cccc4F)cc(Cl)cn23)n1 [Example 61, 3-(4-Butyl-1,3-oxazol-2-yl)-6-chloro-8-[(2,6-difluorobenzyl)oxy]-2-methylimidazo[1,2-a]pyridine trifluoroacetate]
11 | 0.3 µM | Cc1nc2c(OCc3c(F)cccc3F)cccn2c1-c1cccc(Br)c1 [Example 13, 3-(3-bromophenyl)-8-[(2,6-difluorobenzyl)oxy]-2-methylimidazo[1,2-a]pyridine]
12 | 1.0 µM | Cc1nc2c(OCc3c(F)cccc3F)cccn2c1-c1cccc(OC(F)(F)F)c1 [Example 24, 8-[(2,6-difluorobenzyl)oxy]-2-methyl-3-[3-(trifluormethoxy)phenyl]imidazo[1,2-a]pyridine]
13 | 0.2 µM | Cc1nc2c(OCc3c(F)cccc3F)cccn2c1-c1cccc(S(C)(=O)=O)c1 [Example 46]
14 | 1.0 µM | CCNc1nnc(-c2c(C)nc3c(OCc4c(F)cccc4F)cccn23)o1 [Example 57, 5-{8-[(2,6-Difluorobenzyl)oxy]-2-methylimidazo[1,2-a]pyridin-3-yl}-N-ethyl-1,3,4-oxadiazole-2-amine]
15 | 3.0 µM | Cc1nc2c(OCc3c(F)cccc3F)cccn2c1-c1nnc(N)o1 [Example 58, 5-{8-[(2,6-Difluorobenzyl)oxy]-2-methylimidazo[1,2-a]pyridin-3-yl}-1,3,4-oxadiazole-2-amine]

The remaining lines, values behind:

Row | SMILES | MEC
16 | COCCc1nnc(-c2c(C)nc3c(OCC4CCCCC4)cccn23)o1 [Example 68] | 3.0 µM
17 | Cc1cc(OCc2c(F)cccc2F)c2nc(C)c(-c3cnn(CC(=O)NC4CC4)c3)n2c1 [Example 113, N-Cyclopropyl-2-(4-{8-[(2,6-difluorobenzyl)oxy]-2,6-dimethylimidazo[1,2-a]pyridin-3-yl}-1H-pyrazol-1-yl)acetamide] | 0.03 µM
18 | Cc1cc(OCc2c(F)cccc2F)c2nc(C)c(-c3cnn(CC(=O)O)c3)n2c1 [Example 108, (4-{8-[(2,6-difluorobenzyl)oxy]-2,6-dimethylimidazo[1,2-a]pyridin-3-yl}-1H-pyrazol-1-yl)acetic acid] | 0.3 µM
19 | Cc1ccc(-c2c(C)nc3c(OCc4c(F)cccc4F)cc(C)cn23)cc1 [Example 135, 8-[(2,6-Difluorobenzyl)oxy]-2,6-dimethyl-3-(4-methylphenyl)imidazo[1,2-a]pyridine] | 3.0 µM
20 | Cc1cc(OCc2c(F)cccc2F)c2nc(C)c(-c3cnn(CCN4CCS(=O)(=O)CC4)c3)n2c1 [Example 93, 8-[(2,6-Difluorobenzyl)oxy]-3-{1-[2-(1,1-dioxidothiomorpholin-4-yl)ethyl]-1H-pyrazol-4-yl}-2,6-dimethylimidazo[1,2-a]pyridine] | 0.1 µM
21 | COC(=O)C1CC1n1cc(-c2c(C)nc3c(OCc4c(F)cccc4F)cc(C)cn23)cn1 (stereo not drawn) [Example 106] | 0.3 µM
22 | Cc1cc(OCc2c(F)cccc2F)c2nc(C)c(-c3cnn(CCN4CC(O)C4)c3)n2c1 [Example 95, 1-[2-(4-{8-[(2,6-Difluorobenzyl)oxy]-2,6-dimethylimidazo[1,2-a]pyridin-3-yl}-1H-pyrazol-1-yl)ethyl]azetidin-3-ol trifluoroacetate] | 0.3 µM
23 | Cc1nc2c(OCc3c(F)cccc3F)cccn2c1-c1cccc(CN2CCOCC2)c1 [Example 21, 8-[(2,6-difluorobenzyl)oxy]-2-methyl-3-[3-(morpholin-4-ylmethyl)phenyl]imidazo[1,2-a]pyridine] | 1.0 µM
24 | Cc1cc(OCc2c(F)cccc2F)c2nc(C)c(-c3noc(CC(C)(C)N)n3)n2c1 [Example 131, 1-(3-{8-[(2,6-Difluorobenzyl)oxy]-2,6-dimethylimidazo[1,2-a]pyridin-3-yl}-1,2,4-oxadiazol-5-yl)-2-methylpropan-2-amine] | 1.0 µM
25 | Cc1cc(OCc2c(F)cccc2F)c2nc(C)c(-c3ncn(CC(C)(C)N)n3)n2c1 [Example 129, 1-(3-{8-[(2,6-Difluorobenzyl)oxy]-2,6-dimethylimidazo[1,2-a]pyridin-3-yl}-1H-1,2,4-triazol-1-yl)-2-methylpropan-2-amine] | 1.0 µM
26 | Cc1cc(OCc2c(F)cccc2F)c2nc(C)c(-c3cnn(CCc4c(C)n[nH]c4C)c3)n2c1 [Example 99, 8-[(2,6-Difluorobenzyl)oxy]-3-{1-[2-(3,5-dimethyl-1H-pyrazol-4-yl)ethyl]-1H-pyrazol-4-yl}-2,6-dimethylimidazo[1,2-a]pyridine] | 0.03 µM and 0.1 µM
27 | CCN(CC)CCNC(=O)CC(C)n1cc(-c2c(C)nc3c(OCc4c(F)cccc4F)cc(C)cn23)cn1 (racemic) [Example 112, rac-N-[2-(Diethylamino)ethyl]-3-(4-{8-[(2,6-difluorobenzyl)oxy]-2,6-dimethylimidazo[1,2-a]pyridin-3-yl}-1H-pyrazol-1-yl)butanamide] | 1.0 µM
28 | Cc1nc2c(OCc3c(F)cccc3F)cccn2c1-c1ccc(C(=O)NC2CC2)cc1 [Example 9, N-cyclopropyl-4-{8-[(2,6-difluorobenzyl)oxy]-2-methylimidazo[1,2-a]pyridin-3-yl}benzamide] | 0.3 µM
29 | Cc1cc(OCc2c(F)cccc2F)c2nc(C)c(-c3cncc(C(=O)O)c3)n2c1 [Example 76, 5-{8-[(2,6-Difluorobenzyl)oxy]-2,6-dimethylimidazo[1,2-a]pyridin-3-yl}nicotinic acid trifluoroacetate] | 3.0 µM
30 | CCOCc1nnc(-c2c(C)nc3c(OCC4CCCCC4)cccn23)o1 [Example 66] | 3.0 µM
